Test [1] has as its target BACE 1 (Beta Secretase enzyme) (Homo sapiens, UniProt P56817). Put plainly: In vitro enzymatic BACE FRET assay. In kind it is biochemical. An outline of the steps: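 BACE activity read by FRET: peptide substrate (50 nM) carrying fluorophore and quencher across the cleavage site, incubated one hour in 0.05 M acetate pH 4.2, 10% DMSO final, 100 uM genapol. Tris addition raises pH to neutrality to stop the reaction before fluorescence is read.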

The test system of test [2] is Aβ40 in conditioned medium of cells stably expressing Amyloid Precursor Protein (APP). As to the kind of experiment: In vitro BACE cell-based assay (HEK cell assay), Aβ40 sandwich ELISA. The conditions noted are these: Homo sapiens. An outline of the steps:
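Cells stably expressing APP received 10-point compound dilutions (top 100 μM or 10 μM; 0.1% DMSO) for 24 h. Secreted Aβ40 was quantified by sandwich ELISA (pAb40 capture, biotinylated 6E10 detection, europium time-resolved fluorescence). IC50 was derived from percent inhibition versus concentration.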

The mark [3] stands for this setting: IC50 range symbols, Table 1, read-out: BACE 1 FRET assay.
[4] abbreviates: HEK293, 24 h, IC50 range symbols, Table 1, Aβ40, 24 h incubation, read-out: HEK cell assay.
[5] abbreviates: bound stated, read-out: IC50 value in the FRET BACE enzyme assay.

Here are results for 29 compounds from patent US9296698B2, “Amino heteroaryl compounds as beta-secretase modulators and methods of use” (Amgen Inc., priority 2009, dated 2016).

Where two headings read alike, the source gives them in different places.

BACE 1 (Beta Secretase enzyme), sequence (P56817 46-501, species assumed): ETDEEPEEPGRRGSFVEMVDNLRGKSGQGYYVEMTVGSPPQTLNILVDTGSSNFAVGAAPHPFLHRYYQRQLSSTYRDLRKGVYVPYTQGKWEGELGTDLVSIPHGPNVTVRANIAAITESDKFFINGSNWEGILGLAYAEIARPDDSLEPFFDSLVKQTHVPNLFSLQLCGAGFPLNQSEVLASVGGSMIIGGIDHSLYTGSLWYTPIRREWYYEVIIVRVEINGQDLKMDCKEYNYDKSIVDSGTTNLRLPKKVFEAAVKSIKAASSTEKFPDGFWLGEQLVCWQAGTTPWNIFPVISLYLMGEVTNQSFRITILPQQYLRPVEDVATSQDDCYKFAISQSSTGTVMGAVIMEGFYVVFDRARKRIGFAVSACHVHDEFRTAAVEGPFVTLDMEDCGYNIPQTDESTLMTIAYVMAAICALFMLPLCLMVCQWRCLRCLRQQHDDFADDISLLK

With `Cc1cccnc1-c1ccc2nc(N)c(CC(C)C(=O)NC[C@@H]3CCCOC3)cc2c1` (stereo partly drawn) [Example 89, 3-(2-amino-6-(3-methylpyridin-2-yl)quinolin-3-yl)-2-methyl-N-(((S)-tetrahydro-2H-pyran-3-yl)methyl)propanamide], the IC50 in test [1] (setting [3]) was less than 500 nM; in test [2] (setting [4]) it was 500 to 1000 nM.

Take `Cc1ccccc1-c1ccc2nc(N)c(CC(C)C(=O)NCC3CCOC3)cc2c1` (stereo not drawn) [Example 91, 3-(2-amino-6-o-tolylquinolin-3-yl)-2-methyl-N-((tetrahydrofuran-3-yl)methyl)propanamide]: the IC50 was less than 500 nM in test [1] (setting [3]) and 1000 to 5000 nM in test [2] (setting [4]).

`Cc1ccccc1-c1ccc2nc(N)c(CC(C)C(=O)NCC3CCCOC3)cc2c1` (stereo not drawn) [Example 92, 3-(2-amino-6-o-tolylquinolin-3-yl)-2-methyl-N-((tetrahydro-2H-pyran-3-yl)methyl)propanamide]: the IC50 in test [1] (setting [3]) and in test [2] (setting [4]) was less than 500 nM in each case.

As to `Cc1ccccc1-c1ccc2nc(N)c(CC(C)C(=O)NCc3cnn(C)c3)cc2c1` (stereo not drawn) [Example 94, 3-(2-amino-6-o-tolylquinolin-3-yl)-2-methyl-N-((1-methyl-1H-pyrazol-4-yl)methyl)propanamide], the IC50 in test [1] (setting [3]) is less than 500 nM; in test [2] (setting [4]), 1000 to 5000 nM.

Regarding `Cc1ccccc1-c1cc2cc(CCC(=O)NCC3CCCCC3)c(N)nc2cc1C` [Example 95, 3-(2-amino-7-methyl-6-(2-methylphenyl)-3-quinolinyl)-N-(cyclohexylmethyl)propanamide], the IC50 was less than 500 nM in test [1] (setting [3]) and greater than 5000 nM in test [2] (setting [4]).

On to `Cc1ccccc1-c1cc2cc(CCC(=O)NCC3CCCCC3)c(N)nc2cc1F` [Example 96, 3-(2-amino-7-fluoro-6-(2-methylphenyl)-3-quinolinyl)-N-(cyclohexylmethyl)propanamide], for which the IC50 in test [1] (setting [3]) is less than 500 nM; in test [1] (setting [5]) it was less than 50 nM; in test [2] (setting [4]), 1000 to 5000 nM.

For `Cc1cccnc1-c1cc2cc(CC(C)C(=O)NCC3CCOCC3)c(N)nc2cc1F` (stereo not drawn) [Example 97, 3-(2-amino-7-fluoro-6-(3-methyl-2-pyridinyl)-3-quinolinyl)-2-methyl-N-(tetrahydro-2H-pyran-4-ylmethyl)propanamide], the IC50 in test [1] (setting [3]) is less than 500 nM; in test [2] (setting [4]), 1000 to 5000 nM.

Take `Cc1cccnc1-c1cc2cc(CC(C)C(=O)NCCC(C)(C)C)c(N)nc2cc1F` (stereo not drawn) [Example 98, 3-(2-amino-7-fluoro-6-(3-methyl-2-pyridinyl)-3-quinolinyl)-N-(3,3-dimethylbutyl)-2-methylpropanamide]: the IC50 in test [1] (setting [3]) was less than 500 nM; in test [1] (setting [5]) it was less than 50 nM; in test [2] (setting [4]), less than 500 nM.

Consider `Cc1cccnc1-c1ccc2nc(N)c(CC(C)C(=O)NCCC3(C)CC3)cc2c1` (stereo not drawn) [Example 102, 3-(2-amino-6-(3-methylpyridin-2-yl)quinolin-3-yl)-2-methyl-N-(2-(1-methylcyclopropyl)ethyl)propanamide], for which the IC50 in test [1] (setting [3]) and in test [2] (setting [4]) was less than 500 nM throughout.

For `CCCCOc1ccccc1-c1ccc2nc(N)c(CC(C)C(=O)NCC3CCCCC3)cc2c1` (stereo not drawn) [Example 103, 3-(2-amino-6-(2-butoxyphenyl)quinolin-3-yl)-N-(cyclohexylmethyl)-2-methylpropanamide], the IC50 is less than 500 nM in test [1] (setting [3]), less than 50 nM in test [1] (setting [5]) and less than 500 nM in test [2] (setting [4]).

As to `COc1ccccc1C(C)NC(=O)C(C)Cc1cc2cc(-c3ccccc3C)ccc2nc1N` (stereo not drawn) [Example 104, 3-(2-amino-6-o-tolylquinolin-3-yl)-N-(1-(2-methoxyphenyl)ethyl)-2-methylpropanamide], the IC50 in test [1] (setting [3]) was less than 500 nM; in test [2] (setting [4]) it was 1000 to 5000 nM.

As to `COc1ccccc1C(C)NC(=O)CCc1cc2cc(-c3ccccc3C)ccc2nc1N` (stereo not drawn) [Example 105, 3-(2-amino-6-o-tolylquinolin-3-yl)-N-(1-(2-methoxyphenyl)ethyl)propanamide], the IC50 is less than 500 nM in test [1] (setting [3]) and 1000 to 5000 nM in test [2] (setting [4]).

Consider `Cc1ccccc1-c1ccc2nc(N)c(CC(C)C(=O)NC(C)c3ccccc3F)cc2c1` (stereo not drawn) [Example 106, 3-(2-amino-6-o-tolylquinolin-3-yl)-N-(1-(2-fluorophenyl)ethyl)-2-methylpropanamide], for which the results for the IC50 in test [1] (setting [3]), in test [1] (setting [5]) and in test [2] (setting [4]) were less than 500 nM, less than 50 nM and greater than 5000 nM, respectively.

For `Cc1ccc(-c2ccc3nc(N)c(CC(C)C(=O)NCC4CCCCC4)cc3c2)c(F)n1` (stereo not drawn) [Example 107, 3-(2-amino-6-(2-fluoro-6-methylpyridin-3-yl)quinolin-3-yl)-N-(cyclohexylmethyl)-2-methylpropanamide], the IC50 in test [1] (setting [3]) and in test [2] (setting [4]) was 1000 to 5000 nM each time.

For `CC(Cc1cc2cc(-c3ccccc3CN(C)C)ccc2nc1N)C(=O)NCC1CCCCC1` (stereo not drawn) [Example 108, 3-(2-amino-6-(2-((dimethylamino)methyl)phenyl)quinolin-3-yl)-N-(cyclohexylmethyl)-2-methylpropanamide], the IC50 in test [1] (setting [3]) is less than 500 nM; in test [2] (setting [4]), less than 500 nM; in test [2] (HEK293, bound stated in text, read-out: IC50 value in the BACE cell-based in-vitro assay), less than 100 nM.

Turning to `Cc1cccnc1-c1ccc2nc(N)c(CC(C)C(=O)NCCC(C)C)cc2c1` (stereo not drawn) [Example 109, 3-(2-amino-6-(3-methylpyridin-2-yl)quinolin-3-yl)-N-isopentyl-2-methylpropanamide], the IC50 in test [1] (setting [3]) and in test [2] (setting [4]) was less than 500 nM in each case.

Consider `Cc1cccnc1-c1ccc2nc(N)c(CC(C)C(=O)NCC(F)(F)F)cc2c1` (stereo not drawn) [Example 110, 3-(2-amino-6-(3-methylpyridin-2-yl)quinolin-3-yl)-2-methyl-N-(2,2,2-trifluoroethyl)propanamide], for which the IC50 in test [1] (setting [3]) and in test [2] (setting [4]) was 500 to 1000 nM each time.

As for `Cc1cccnc1-c1ccc2nc(N)c(CC(C)C(=O)NCCC3CC3)cc2c1` (stereo not drawn) [Example 111, 3-(2-amino-6-(3-methylpyridin-2-yl)quinolin-3-yl)-N-(2-cyclopropylethyl)-2-methylpropanamide], the IC50 in test [1] (setting [3]) was less than 500 nM; in test [2] (setting [4]), 1000 to 5000 nM.

`Cc1cccnc1-c1ccc2nc(N)c(CC(C)C(=O)NCCC(F)(F)F)cc2c1` (stereo not drawn) [Example 112, 3-(2-amino-6-(3-methylpyridin-2-yl)quinolin-3-yl)-2-methyl-N-(3,3,3-trifluoropropyl)propanamide]: the IC50 in test [1] (setting [3]) is less than 500 nM; in test [2] (setting [4]), 500 to 1000 nM.

In the case of `Cc1cccnc1-c1ccc2nc(N)c(CC(C)C(=O)NCCC3CCCO3)cc2c1` (stereo not drawn) [Example 113, 3-(2-amino-6-(3-methylpyridin-2-yl)quinolin-3-yl)-2-methyl-N-(2-(tetrahydrofuran-2-yl)ethyl)propanamide], the figures for the IC50 in test [1] (setting [3]) and in test [2] (setting [4]) were 500 to 1000 nM and 1000 to 5000 nM, respectively.

With `Cc1cccnc1-c1ccc2nc(N)c(CC(C)C(=O)N[C@H](C)C(F)(F)F)cc2c1` (stereo partly drawn) [Example 114, 3-(2-amino-6-(3-methylpyridin-2-yl)quinolin-3-yl)-2-methyl-N-((R)-1,1,1-trifluoropropan-2-yl)propanamide], the IC50 in test [1] (setting [3]) and in test [2] (setting [4]) was 1000 to 5000 nM in each case.

On to `Cc1ccccc1-c1ccc2nc(N)c(CCC(=O)NCCC3CC3)cc2c1` [Example 115, 3-(2-amino-6-o-tolylquinolin-3-yl)-N-(2-cyclopropylethyl)propanamide], for which the IC50 is less than 500 nM in test [1] (setting [3]) and 1000 to 5000 nM in test [2] (setting [4]).

`CC(Cc1cc2cc(-c3ncccc3Cl)ccc2nc1N)C(=O)NCCC(F)(F)F` (stereo not drawn) [Example 116, 3-(2-amino-6-(3-chloropyridin-2-yl)quinolin-3-yl)-2-methyl-N-(3,3,3-trifluoropropyl)propanamide]: the IC50 in test [1] (setting [3]) is 1000 to 5000 nM; in test [2] (setting [4]), greater than 5000 nM.

`Cc1cccnc1-c1ccc2nc(N)c(CC(C)C(=O)NCC3CCC(F)(F)CC3)cc2c1` (stereo not drawn) [Example 117, 3-(2-amino-6-(3-methylpyridin-2-yl)quinolin-3-yl)-N-((4,4-difluorocyclohexyl)methyl)-2-methylpropanamide]: the results for the IC50 in test [1] (setting [3]) and in test [2] (setting [4]) were less than 500 nM and 500 to 1000 nM, respectively.

For the compound `CCC1CCN1C(=O)C(C)Cc1cc2cc(-c3ncccc3C)ccc2nc1N` (stereo not drawn) [Example 118, 3-(2-amino-6-(3-methylpyridin-2-yl)quinolin-3-yl)-1-(2-ethylazetidin-1-yl)-2-methylpropan-1-one], the IC50 in test [1] (setting [3]) and in test [2] (setting [4]) was greater than 5000 nM throughout.

Regarding `COCC1CC1c1ccc2nc(N)c(CC(C)C(=O)NCCC(C)(C)C)cc2c1` (stereo not drawn) [Example 119, 3-(2-amino-6-(2-(methoxymethyl)cyclopropyl)quinolin-3-yl)-N-(3,3-dimethylbutyl)-2-methylpropanamide], the IC50 in test [1] (setting [3]) and in test [2] (setting [4]) was greater than 5000 nM throughout.

For the compound `CCC1CC1c1ccc2nc(N)c(CC(C)C(=O)NCCC(C)(C)C)cc2c1` (stereo not drawn) [Example 120, 3-(2-amino-6-(2-ethylcyclopropyl)quinolin-3-yl)-N-(3,3-dimethylbutyl)-2-methylpropanamide], the figures for the IC50 in test [1] (setting [3]) and in test [2] (setting [4]) were 500 to 1000 nM and greater than 5000 nM, respectively.

Take `CC(Cc1cc2cc([C@H]3C[C@H]3C)ccc2nc1N)C(=O)NCCC(C)(C)C` (stereo partly drawn) [Example 121, 3-(2-amino-6-((1S,2R)-2-methylcyclopropyl)quinolin-3-yl)-N-(3,3-dimethylbutyl)-2-methylpropanamide]: the IC50 in test [1] (setting [3]) is 500 to 1000 nM; in test [2] (setting [4]), greater than 5000 nM.

Regarding `CC(Cc1cc2cc(-c3ccccn3)ccc2nc1N)C(=O)NCCC(C)(C)C` (stereo not drawn) [Example 122, 3-(2-amino-6-(pyridin-2-yl)quinolin-3-yl)-N-(3,3-dimethylbutyl)-2-methylpropanamide], the values for the IC50 in test [1] (setting [3]) and in test [2] (setting [4]) were less than 500 nM and 500 to 1000 nM, respectively.
